ChEMBL document CHEMBL1153457, “Effects of structural analogues of the substrate and allosteric regulator of the human mitochondrial NAD(P)+-dependent malic enzyme” (Bioorg Med Chem, 2009)
Activity calls are given as the source filed them. The rule behind the calls is not given here.

Tests used:
Homo sapiens [1] = species: Homo sapiens; assay: Inhibition of human mitochondrial NADP-ME E59L mutant expressed in Escherichia coli XL-1 assessed as residual enzyme activity by spectrophotometry in presence of fumarate
Homo sapiens [2] = species: Homo sapiens; assay: Inhibition of human mitochondrial NADP-ME E59L mutant expressed in Escherichia coli XL-1 assessed as residual enzyme activity by spectrophotometry in absence of fumarate
Homo sapiens [3] = species: Homo sapiens; assay: Activation of human mitochondrial NADP-ME E59L mutant expressed in Escherichia coli XL-1 by spectrophotometry

Activity (Homo sapiens [1])	Activity (Homo sapiens [2])	Activity (Homo sapiens [3])	SMILES
Active	Active		O=C(O)CC(=O)O
Active	Active		O=C(O)/C=C\C(=O)O
Active	Active		O=C(O)/C=C/CC(=O)O
		inactive	O=C(O)/C=C/C(=O)O
